Test results published in patent publication US7700621B2, “6-alkenyl-, 6-alkinyl- and 6-epoxy-epothilone derivatives, process for their production, and their use in pharmaceutical preparations” (Bayer Schering Pharma Aktiengesellschaft, priority 1999, dated 2010).

tested on: multi-drug-resistant NCl/ADR-carcinoma cell line; assay: Growth inhibition of multi-drug-resistant NCl/ADR carcinoma cell line, crystal-violet assay; format: cell-based, human; details: ratio of IC50 NCl/ADR to IC50 MCF-7
From the text: In Vitro Activity of Epothilone Derivatives on Human Tumor Cell Lines
a) IC50 values [nM] for the growth inhibition of human MCF-7-breast and multi-drug-resistant NCl/ADR-carcinoma cell lines of epothilone derivatives with 13Z-unsaturated in the crystal-violet assay in comparison to Taxol.
b) IC50 values [nM] for the growth inhibition of human MCF-7-breast- and multi-drug-resistant NCl/ADR carcinoma cell lines of epothilone derivative with 13,14-α-epoxide, which was formed from the 13-Z-configured double bond in the crystal-violet assay in comparison to Taxol.
c) IC50 values [nM] for the growth inhibition of human MCF-7-breast- and multi-drug-resistant NCl/ADR-carcinoma cell lines of epothilone derivatives with 13,14-epoxide, which was formed from the 13-E-configured double bond, in a crystal-violet assay in comparison to Taxol.

SMILES	Selectivity = IC50 (NCl/ADR) : IC50 (MCF-7)
C#CCC[C@H]1C(=O)C(C)(C)[C@@H](O)CC(=O)O[C@H](/C(C)=C/c2ccccn2)C/C=C(/C)CCC[C@H](C)[C@@H]1O [Example 1, (4S,7R,8S,9S,13Z,16S(E))-4,8-Dihydroxy-16-(1-methyl-2-(2-pyridyl)ethenyl)-1-oxa-5,9,13-tetramethyl-7-(but-3-in-1-yl)-cyclohexadec-13-ene-2,6-dione]	2.5
C#CC[C@H]1C(=O)C(C)(C)[C@@H](O)CC(=O)O[C@H](/C(F)=C/c2coc(C)n2)C/C=C(/C)CCC[C@H](C)[C@@H]1O [Example 27, (4S,7R,8S,9S,13Z,16S(Z))-4,8-Dihydroxy-16-(1-fluoro-2-(2-methyloxazol-4-yl)ethenyl)-7-(prop-2-in-1-yl)-1-oxa-5,5,9,13-tetramethyl-cyclohexadec-13-ene-2,6-dione]	1.6
C#CCC[C@H]1C(=O)C(C)(C)[C@@H](O)CC(=O)O[C@H](/C(C)=C/c2ccccn2)C[C@@H]2O[C@]2(C)CCC[C@H](C)[C@@H]1O [Example 4A, (1S,3S(E),7S,10R,11S,12S,16R)-7,11-Dihydroxy-10-(but-3-in-1-yl)-3-(1-methyl-2-(2-pyridyl)ethenyl)-8,8,12,16-tetramethyl-4,17-dioxabicyclo[14.1.0]heptadecane-5,9-dione]	7.0
C#CC[C@H]1C(=O)C(C)(C)[C@@H](O)CC(=O)O[C@H](/C(F)=C/c2csc(C)n2)C[C@@H]2O[C@@]2(C)CCC[C@H](C)[C@@H]1O [Example 26A or B]	3.3
C=CCC[C@H]1C(=O)C(C)(C)[C@@H](O)CC(=O)O[C@H](/C(C)=C/c2ccccn2)C/C=C(/C)CCC[C@H](C)[C@@H]1O [Example 2, (4S,7R,8S,9S,13Z,16S(E))-4,8-Dihydroxy-16-(1-methyl-2-(2-pyridyl)ethenyl)-1-oxa-5,5,9,13-tetramethyl-7-(but-3-en-1-yl)-cyclohexadec-13-ene-2,6-dione]	2.8
C=CC[C@H]1C(=O)C(C)(C)[C@@H](O)CC(=O)O[C@H](/C(C)=C/c2csc(C)n2)C[C@@H]2O[C@]2(C)CCC[C@H](C)[C@@H]1O [Example 10A, (1S,3S(E),7S,10R,11S,12S,16R)-7,11-Dihydroxy-10-(prop-2-en-1-yl)-3-(1-methyl-2-(2-methylthiazol-4-yl)ethenyl)-8,8,12,16-tetramethyl-4,17-dioxabicyclo[14.1.0]heptadecane-5,9-dione]	3.0
C#CC[C@H]1C(=O)C(C)(C)[C@@H](O)CC(=O)O[C@H](/C(F)=C/c2csc(C)n2)C[C@@H]2O[C@]2(C)CCC[C@H](C)[C@@H]1O [Example 25, (1S,3S(Z),7S,10R,11S,12S,16R)-7,11-Dihydroxy-3-(1-fluoro-2-(2-methyl-4-thiazolyl)ethenyl)-10-(prop-2-in-1-yl)-8,8,12,16-tetramethyl-4,17-dioxabicyclo[14.1.0]heptadecane-5,9-dione]	4.8
C=CCC[C@H]1C(=O)C(C)(C)[C@@H](O)CC(=O)O[C@H](/C(C)=C/c2ccccn2)C[C@@H]2O[C@]2(C)CCC[C@H](C)[C@@H]1O [Example 5A, (1S,3S(E),7S,10R,11S,12S,16R)-7,11-Dihydroxy-10-(but-3-en-1-yl)-3-(1-methyl-2-(2-pyridyl)ethenyl)-8,8,12,16-tetramethyl-4,17-dioxabicyclo[14.1.0]heptadecane-5,9-dione]	1.2
C=CC[C@H]1C(=O)C(C)(C)[C@@H](O)CC(=O)O[C@H](/C(C)=C/c2csc(C)n2)C[C@H]2O[C@]2(C)CCC[C@H](C)[C@@H]1O [Example 12A or B]	1.5
C=CC[C@H]1C(=O)C(C)(C)[C@@H](O)CC(=O)O[C@H](/C(C)=C/c2csc(C)n2)C/C=C(/C)CCC[C@H](C)[C@@H]1O [Example 9, (4S,7R,8S,9S,13Z,16S(E))-4,8-Dihydroxy-16-(1-methyl-2-(2-methylthiazol-4-yl)ethenyl)-1-oxa-5,5,9,13-tetramethyl-7-(prop-2-en-1-yl)-cyclohexadec-13-ene-2,6-dione]	2.4
C#CC[C@H]1C(=O)C(C)(C)[C@@H](O)CC(=O)O[C@H](/C(F)=C/c2csc(C)n2)C/C=C(/C)CCC[C@H](C)[C@@H]1O [Example 23, (4S,7R,8S,9S,13Z,16S(Z))-4,8-Dihydroxy-16-(1-fluoro-2-(2-methylthiazol-4-yl)ethenyl)-7-(prop-2-in-1-yl)-1-oxa-5,5,9,13-tetramethyl-cyclohexadec-13-ene-2,6-dione]	5.6

same assay, conditions: statement in words, compared with Taxol

SMILES	action on the multi-drug-resistant cell line NCl/ADR
CC(=O)O[C@H]1C(=O)[C@@]2(C)[C@H]([C@H](OC(=O)c3ccccc3)[C@]3(O)C[C@H](OC(=O)[C@H](O)[C@@H](NC(=O)c4ccccc4)c4ccccc4)C(C)=C1C3(C)C)[C@]1(OC(C)=O)CO[C@@H]1C[C@@H]2O [Taxol, reference compound]	not exhibited
